Measurements: US7524853B2 (Solvay Pharmaceuticals B.V., priority 2003, dated 2009)

What was measured:
Type in all cases: cell-based
[1] = biological target: T1, 17β-hydroxysteroid dehydrogenase type 2 (17β-HSD type 2) (Homo sapiens, UniProt P37059); experiment: Inhibition of 17β-HSD type 2 in MCF-7 cells stably expressing the isoenzyme (tritium labeled estradiol conversion, HPLC); conditions: MCF7, MCF-7 cells expressing 17β-HSD type 2, 2 nM tritium labeled estradiol; for inhibition at 1 µM: 1 μM test compound, read-out: % Inhibition HSD2 1 μM; for inhibition at 10 µM: 10 μM test compound, read-out: % Inhibition HSD2 10 μM
T1 construct: expressed in transfected cells; host or cells: MCF-7
T1 sequence (P37059 1-387): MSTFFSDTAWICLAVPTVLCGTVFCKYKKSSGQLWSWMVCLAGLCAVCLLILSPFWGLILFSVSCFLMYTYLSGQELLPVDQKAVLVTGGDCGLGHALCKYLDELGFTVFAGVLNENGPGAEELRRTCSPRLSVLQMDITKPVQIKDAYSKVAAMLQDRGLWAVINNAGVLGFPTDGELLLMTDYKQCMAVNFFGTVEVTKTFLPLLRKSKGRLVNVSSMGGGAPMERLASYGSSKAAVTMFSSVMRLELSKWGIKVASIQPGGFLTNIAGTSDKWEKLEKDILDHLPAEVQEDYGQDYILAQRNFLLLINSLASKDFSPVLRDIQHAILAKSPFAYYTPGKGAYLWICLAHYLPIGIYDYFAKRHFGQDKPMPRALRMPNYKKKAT
Description: (§1) Biological Testing Materials and Methods 1. Inhibition of the 17β-hydroxysteroid dehydrocienase type 1, type 2 and type 3 enzyme
(§2) The compounds were screened in respect of 17β-HSD enzyme activity in vitro on established MCF-7 cell lines, each stably expressing one of the respective 17β-HSD isoenzymes. The interconversion of substrate by each isoenzyme and the 17β-HSD inhibiting activity of chemical compounds in these cell lines were detected by HPLC system.
(§3) Varying amounts of the test compounds were incubated in the growth medium of the 17β-HSD expressing cells together tritium labeled substrate (2 nM estrone for 17β-HSD type 1; 2 nM estradiol for 17β-HSD type 2; and 2 nM androstenedione for 17β-HSD type 3). The medium samples were removed after exact incubation time and the reaction is stopped by trichloroacetic acid (TCA). The samples were analyzed by HPLC-coupled flow scintillation analysis.
(§4) For each enzyme type, the HSD-inhibiting activity of an individual test compound was calculated by comparing the conversion of a control sample without any test compound (referred to as “Negative Control”) to the (reduced) conversion of the test sample containing the particular compound to be tested (referred to as “Test Sample”).
(§5) Two concentrations of each compound were used. The number of the compound refers to the numbers indicated in the Experimental Section.

[2] = biological target: T2, 17β-hydroxysteroid dehydrogenase type 1 (17β-HSD type 1) (Homo sapiens, UniProt P14061); experiment: Inhibition of 17β-HSD type 1 in MCF-7 cells stably expressing the isoenzyme (tritium labeled estrone conversion, HPLC); conditions: MCF7, MCF-7 cells expressing 17β-HSD type 1, 2 nM tritium labeled estrone; for inhibition at 1 µM: 1 μM test compound, read-out: % Inhibition HSD1 1 μM; for inhibition at 10 µM: 10 μM test compound, read-out: % Inhibition HSD1 10 μM
T2 construct: expressed in transfected cells; host or cells: MCF-7
T2 sequence (P14061 1-328): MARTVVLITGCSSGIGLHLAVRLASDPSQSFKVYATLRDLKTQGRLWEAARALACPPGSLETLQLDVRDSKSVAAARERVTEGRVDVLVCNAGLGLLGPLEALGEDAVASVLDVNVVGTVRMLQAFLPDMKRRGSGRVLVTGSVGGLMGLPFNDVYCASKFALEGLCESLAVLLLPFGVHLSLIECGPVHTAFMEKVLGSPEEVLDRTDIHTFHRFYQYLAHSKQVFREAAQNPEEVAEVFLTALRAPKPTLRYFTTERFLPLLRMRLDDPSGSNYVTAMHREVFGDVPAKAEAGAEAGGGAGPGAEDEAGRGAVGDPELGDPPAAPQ
Description: as §1, §2, §3, §4, §5

[3] = biological target: T3, 17β-hydroxysteroid dehydrogenase type 3 (17β-HSD type 3) (Homo sapiens, UniProt P37058); experiment: Inhibition of 17β-HSD type 3 in MCF-7 cells stably expressing the isoenzyme (tritium labeled androstenedione conversion, HPLC); conditions: MCF7, MCF-7 cells expressing 17β-HSD type 3, 2 nM tritium labeled androstenedione; for inhibition at 1 µM: 1 μM test compound, read-out: % Inhibition HSD3 1 μM; for inhibition at 10 µM: 10 μM test compound, read-out: % Inhibition HSD3 10 μM
T3 construct: expressed in transfected cells; host or cells: MCF-7
T3 sequence (P37058 1-310): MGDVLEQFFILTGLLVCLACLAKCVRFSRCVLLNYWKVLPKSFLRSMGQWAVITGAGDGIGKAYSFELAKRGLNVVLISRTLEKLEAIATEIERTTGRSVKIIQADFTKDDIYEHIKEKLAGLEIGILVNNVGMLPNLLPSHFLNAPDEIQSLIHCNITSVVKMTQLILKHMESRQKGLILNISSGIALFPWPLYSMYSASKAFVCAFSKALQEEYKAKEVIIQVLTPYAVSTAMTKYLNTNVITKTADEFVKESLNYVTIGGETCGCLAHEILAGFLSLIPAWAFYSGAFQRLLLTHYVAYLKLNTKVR
Description: as §1, §2, §3, §4, §5

`CC(=O)OCc1nc2sc3c(c2c(=O)n1Cc1ccccc1)CCCC3=O` [No. 30, Acetic acid 3-benzyl-4,8-dioxo-3,4,5,6,7,8-hexahydro-benzo[4,5]thieno[2,3-d]pyrimidin-2-ylmethyl ester] gave an inhibition at 1 µM [1] of 20.2%, an inhibition at 10 µM [1] of 19.1% and an inhibition at 1 µM [2] of 25.4%. It also gave an inhibition at 10 µM [2] of 39.7%, an inhibition at 1 µM [3] of -1.2% and an inhibition at 10 µM [3] of 16.3%.

In the case of `COCc1nc2sc3c(c2c(=O)n1Cc1ccccc1)CCCC3=O` [No. 31, 3-Benzyl-2-methoxymethyl-6,7-dihydro-3H,5H-benzo[4,5]thieno[2,3-d]pyrimidine-4,8-dione], the inhibition at 1 µM [1] is reported as -0.5%, the inhibition at 10 µM [1] is reported as 5.1% and the inhibition at 1 µM [2] is reported as 12%. For the same molecule, the inhibition at 10 µM [2] was 39.7%, the inhibition at 1 µM [3] was -1.3% and the inhibition at 10 µM [3] was 10.8%.

With `COC(=O)c1nc2sc3c(c2c(=O)n1Cc1ccccc1)CCCC3=O` [No. 32, 3-Benzyl-4,8-dioxo-3,4,5,6,7,8-hexahydro-benzo[4,5]thieno[2,3-d]pyrimidine-2-carboxylic acid methyl ester] the inhibition at 1 µM [1] was 9.8%, the inhibition at 10 µM [1] was 19.5% and the inhibition at 1 µM [2] was 37.2%. The inhibition at 10 µM [2] was 86.6%, the inhibition at 1 µM [3] was 9.6% and the inhibition at 10 µM [3] was 70%.

Work on `O=Cc1nc2c(c(=O)n1Cc1ccccc1)C1=C(CCCC1)S2(=O)=O` [No. 33, 3-Benzyl-4,9,9-trioxo4,5,6,7,8,9-hexahydro-3H-9lambda*6*-benzo[4,5]thieno[2,3-d]pyrimidine-2-carbaldehyde] yielded an inhibition at 1 µM [1] of 16.3%, an inhibition at 10 µM [1] of 18.7% and an inhibition at 1 µM [2] of 17.6%. It also gave an inhibition at 10 µM [2] of 67.3%, an inhibition at 1 µM [3] of 1.9% and an inhibition at 10 µM [3] of 0.1%.

`COCc1nc2sc3c(c2c(=O)n1Cc1ccccc1)CCC(C=O)=C3Cl` [No. 34, 3-Benzyl-8-chloro-2-methoxymethyl-4-oxo-3,4,5,6-tetrahydro-benzo[4,5]thieno[2,3-d]pyrimidine-7-carbaldehyde] showed an inhibition at 1 µM [1] of -1.5%, an inhibition at 10 µM [1] of 25.3% and an inhibition at 1 µM [2] of 12.5%. The inhibition at 10 µM [2] was 64.2%, the inhibition at 1 µM [3] was 15.8% and the inhibition at 10 µM [3] was 100%.

Molecule `COCc1nc2sc3c(Cl)c(C=O)c(C(=O)O)c(O)c3c2c(=O)n1Cc1ccccc1` [No. 35, 3-Benzyl-8-chloro-7-formyl-5-hydroxyl-2-methoxymethyl-4-oxo-benzo[4,5]thieno[2,3-d]pyrimidine-6-carboxylic acid] has an inhibition at 1 µM [1] of -6.8%, an inhibition at 10 µM [1] of 28.7% and an inhibition at 1 µM [2] of 8.8%. It also gave an inhibition at 10 µM [2] of 28.6%, an inhibition at 1 µM [3] of 14.7% and an inhibition at 10 µM [3] of 82.3%.

For `COCc1nc2sc3c(c2c(=O)n1-c1ccccc1)CCCC3` [No. 36, 2-Methoxymethyl-3-phenyl-5,6,7,8-tetrahydro-3H-benzo[4,5]thieno[2,3-d]pyrimidin-4-one], the inhibition at 1 µM [1] was -6.8%, the inhibition at 10 µM [1] was 28.7% and the inhibition at 1 µM [2] was 20.7%. For the same molecule, the inhibition at 10 µM [2] was 22.4%, the inhibition at 1 µM [3] was -0.9% and the inhibition at 10 µM [3] was 7.6%.

With `COCc1nc2sc3c(c2c(=O)n1-c1ccccc1)CCCC3=O` [No. 37, 2-Methoxymethyl-3-phenyl-6,7-dihydro-3H,5H-benzo[4,5]thieno[2,3-d]pyrimidin-4,8-dione] the inhibition at 1 µM [1] was -0.2%, the inhibition at 10 µM [1] was 9% and the inhibition at 1 µM [2] was 9.7%. The inhibition at 10 µM [2] was 21.4%, the inhibition at 1 µM [3] was 9.2% and the inhibition at 10 µM [3] was 22.2%.

`O=c1c2c3c(sc2nc(CO)n1-c1ccccc1)CCCC3` [No. 38, 2-Hydroxymethyl-3-phenyl-5,6,7,8-tetrahydro-3H-benzo[4,5]thieno[2,3-d]pyrimidin-4-one] was tested, and the inhibition at 1 µM [1] was 11.4%, the inhibition at 10 µM [1] was 33.4% and the inhibition at 1 µM [2] was 0.3%. It also gave an inhibition at 10 µM [2] of 23.6%, an inhibition at 1 µM [3] of 14.2% and an inhibition at 10 µM [3] of 17.6%.

In the case of `CC(=O)OCc1nc2sc3c(c2c(=O)n1-c1ccccc1)CCCC3` [No. 39, Acetic acid 4-oxo-3-phenyl-3,4,5,6,7,8-hexahydro-benzo[4,5]thieno[2,3-d]pyrimidin-2-ylmethyl ester], the inhibition at 1 µM [1] is reported as 25%, the inhibition at 10 µM [1] is reported as 9.5% and the inhibition at 1 µM [2] is reported as 21.1%. It also gave an inhibition at 10 µM [2] of 13.2%, an inhibition at 1 µM [3] of 18.5% and an inhibition at 10 µM [3] of 12.8%.

Molecule `CCOC(=O)c1nc2sc3c(c2c(=O)n1-c1ccccc1)CCCC3` [No. 40, 4-Oxo-3-phenyl-3,4,5,6,7,8-hexahydro-benzo[4,5]thieno[2,3-d]pyrimidine-2-carboxylic acid ethyl ester] has an inhibition at 1 µM [1] of 13.8%, an inhibition at 10 µM [1] of 5.3% and an inhibition at 1 µM [2] of 15.6%. For the same molecule, the inhibition at 10 µM [2] was 25%, the inhibition at 1 µM [3] was 3.8% and the inhibition at 10 µM [3] was 16.2%.

Molecule `O=c1c2c3c(sc2nc(-c2cc(O)c(O)c(O)c2)n1Cc1ccccc1)CCCC3` [No. 41, 3-Benzyl-2-(3,4,5-trihydroxyphenyl)-5,6,7,8-tetrahydro-3H-benzo[4,5]thieno[2,3-d]pyrimidin-4-one] has an inhibition at 1 µM [1] of 17.9%, an inhibition at 10 µM [1] of 17.7% and an inhibition at 1 µM [2] of 5.7%. For the same molecule, the inhibition at 10 µM [2] was 10%, the inhibition at 1 µM [3] was 22.5% and the inhibition at 10 µM [3] was 34.5%.

In the case of `COc1c(O)cc(-c2nc3sc4c(c3c(=O)n2-c2ccccc2)CCCC4)cc1O` [No. 42, 3-Phenyl-2-(3,5-dihydroxy-4-methoxyphenyl)-5,6,7,8-tetrahydro-3H-benzo[4,5]thieno[2,3-d]pyrimidin-4-one], the inhibition at 1 µM [1] is reported as -1.9%, the inhibition at 10 µM [1] is reported as -0.5% and the inhibition at 1 µM [2] is reported as 26.8%. It also gave an inhibition at 10 µM [2] of 56%, an inhibition at 1 µM [3] of 3.2% and an inhibition at 10 µM [3] of 4%.

`O=c1c2c3c(sc2nc(-c2cc(O)c(O)c(O)c2)n1-c1ccccc1)CCCC3` [No. 43, 3-Phenyl-2-(3,4,5-trihydroxyphenyl)-5,6,7,8-tetrahydro-3H-benzo[4,5]thieno[2,3-d]pyrimidin-4-one] showed an inhibition at 1 µM [1] of 18%, an inhibition at 10 µM [1] of 15% and an inhibition at 1 µM [2] of 12%. For the same molecule, the inhibition at 10 µM [2] was 23.8%, the inhibition at 1 µM [3] was -2.5% and the inhibition at 10 µM [3] was -0.9%.

Molecule `Cc1nc2sc3c(c2c(=O)n1-c1ccccc1)CCC(Br)C3=O` (stereo not drawn) [No. 44, 7-Bromo-2-methyl-3-phenyl-6,7-dihydro-3H,5H-benzo[4,5]thieno[2,3-d]pyrimidine-4,8-dione] has an inhibition at 1 µM [1] of 2.2%, an inhibition at 10 µM [1] of 16.3% and an inhibition at 1 µM [2] of 10.5%. It also gave an inhibition at 10 µM [2] of 55.6%, an inhibition at 1 µM [3] of -22.5% and an inhibition at 10 µM [3] of 26.3%.

With `Cc1nc2sc3c(c2c(=O)n1-c1ccccc1)CCC(Br)(Br)C3=O` [No. 45, 7,7-Dibromo-2-methyl-3-phenyl-6,7-dihydro-3H,5H-benzo[4,5]thieno[2,3-d]pyrimidine-4,8-dione] the inhibition at 1 µM [1] was 3.5%, the inhibition at 10 µM [1] was 6.5% and the inhibition at 1 µM [2] was -7.7%. For the same molecule, the inhibition at 10 µM [2] was -18.3%, the inhibition at 1 µM [3] was -2.2% and the inhibition at 10 µM [3] was 4.1%.
